Data: the NIST ThermoML archive (doi:10.1021/je050050p)

Assay: xn = mol fraction of the nth substance listed
Details: Liquid, Vibrating tube method

CN(C)C=O [dimethylformamide] + O=C=O
Details	mass density [kg/m3]
323.07 K, 21005 kPa, x2 = 0.6235	955.83
323.07 K, 22029 kPa, x2 = 0.6235	957.78
323.07 K, 23012 kPa, x2 = 0.6235	959.63
323.07 K, 24020 kPa, x2 = 0.6235	961.47
323.07 K, 24979 kPa, x2 = 0.6235	963.24
323.08 K, 11047 kPa, x2 = 0.8091	888.99
323.08 K, 12004 kPa, x2 = 0.8091	893.47
323.08 K, 13042 kPa, x2 = 0.8091	898.2
323.08 K, 14006 kPa, x2 = 0.8091	902.33
323.08 K, 15005 kPa, x2 = 0.8091	906.31
323.08 K, 16016 kPa, x2 = 0.8091	910.13
323.08 K, 16989 kPa, x2 = 0.8091	913.66
323.08 K, 18023 kPa, x2 = 0.8091	917.28
323.08 K, 18997 kPa, x2 = 0.8091	920.57
323.08 K, 20018 kPa, x2 = 0.8091	923.89
323.08 K, 21002 kPa, x2 = 0.8091	927.01
323.08 K, 22041 kPa, x2 = 0.8091	930.23
323.08 K, 22980 kPa, x2 = 0.8091	933.13
323.08 K, 23989 kPa, x2 = 0.8091	936
323.08 K, 25049 kPa, x2 = 0.8091	939.12
323.09 K, 7005 kPa, x2 = 0.4268	942.62
323.09 K, 7062 kPa, x2 = 0.4461	942.94
323.09 K, 7958 kPa, x2 = 0.4461	944.11
323.09 K, 8007 kPa, x2 = 0.4268	943.86
323.09 K, 9005 kPa, x2 = 0.4268	944.97
323.09 K, 9022 kPa, x2 = 0.4461	945.39
323.09 K, 9996 kPa, x2 = 0.4268	946.2
323.09 K, 9998 kPa, x2 = 0.4461	946.6
323.09 K, 11005 kPa, x2 = 0.4461	947.83
323.09 K, 11020 kPa, x2 = 0.4268	947.43
323.09 K, 12000 kPa, x2 = 0.4268	948.52
323.09 K, 12017 kPa, x2 = 0.9311	797.65
323.09 K, 12039 kPa, x2 = 0.4461	949.09
323.09 K, 13002 kPa, x2 = 0.4461	950.23
323.09 K, 13010 kPa, x2 = 0.9311	810.33
323.09 K, 13035 kPa, x2 = 0.4268	949.74
323.09 K, 14007 kPa, x2 = 0.4268	950.83
323.09 K, 14007 kPa, x2 = 0.4461	951.42
323.09 K, 14016 kPa, x2 = 0.9311	821.48
323.09 K, 14996 kPa, x2 = 0.4461	952.54
323.09 K, 15005 kPa, x2 = 0.9311	831.25
323.09 K, 15007 kPa, x2 = 0.4268	951.95
323.09 K, 15987 kPa, x2 = 0.4268	952.99
323.09 K, 16001 kPa, x2 = 0.4461	953.67
323.09 K, 16036 kPa, x2 = 0.9311	840.41
323.09 K, 16984 kPa, x2 = 0.4268	954.11
323.09 K, 17004 kPa, x2 = 0.4461	954.83
323.09 K, 17025 kPa, x2 = 0.9311	848.46
323.09 K, 17998 kPa, x2 = 0.4268	955.17
323.09 K, 18000 kPa, x2 = 0.4461	955.98
323.09 K, 18021 kPa, x2 = 0.9311	855.96
323.09 K, 18994 kPa, x2 = 0.4461	957.05
323.09 K, 19034 kPa, x2 = 0.9311	863.06
323.09 K, 19040 kPa, x2 = 0.4268	956.31
323.09 K, 20010 kPa, x2 = 0.9311	869.5
323.09 K, 20031 kPa, x2 = 0.4461	958.19
323.09 K, 20050 kPa, x2 = 0.4268	957.38
323.09 K, 21020 kPa, x2 = 0.4461	959.24
323.09 K, 21029 kPa, x2 = 0.9311	875.82
323.09 K, 21048 kPa, x2 = 0.4268	958.44
323.09 K, 22009 kPa, x2 = 0.9311	881.6
323.09 K, 22029 kPa, x2 = 0.4461	960.34
323.09 K, 22041 kPa, x2 = 0.4268	959.46
323.09 K, 23008 kPa, x2 = 0.4461	961.38
323.09 K, 23037 kPa, x2 = 0.4268	960.49
323.09 K, 23050 kPa, x2 = 0.9311	887.36
323.09 K, 23995 kPa, x2 = 0.9311	892.39
323.09 K, 24019 kPa, x2 = 0.4461	962.44
323.09 K, 24061 kPa, x2 = 0.4268	961.52
323.09 K, 25007 kPa, x2 = 0.4461	963.48
323.09 K, 25036 kPa, x2 = 0.4268	962.52
323.09 K, 25056 kPa, x2 = 0.9311	897.78
323.1 K, 7005 kPa, x2 = 0.4502	942.87
323.1 K, 7058 kPa, x2 = 0.4068	942.59
323.1 K, 8007 kPa, x2 = 0.4068	943.65
323.1 K, 8009 kPa, x2 = 0.4502	944.1
323.1 K, 9003 kPa, x2 = 0.4502	945.32
323.1 K, 9034 kPa, x2 = 0.4068	944.82
323.1 K, 10001 kPa, x2 = 0.4068	945.91
323.1 K, 10005 kPa, x2 = 0.4502	946.57
323.1 K, 11002 kPa, x2 = 0.4502	947.78
323.1 K, 11013 kPa, x2 = 0.4068	947.04
323.1 K, 12000 kPa, x2 = 0.4068	948.11
323.1 K, 12012 kPa, x2 = 0.4502	948.99
323.1 K, 12998 kPa, x2 = 0.4068	949.23
323.1 K, 13022 kPa, x2 = 0.4502	950.22
323.1 K, 13979 kPa, x2 = 0.4068	950.27
323.1 K, 14010 kPa, x2 = 0.4502	951.35
323.1 K, 15004 kPa, x2 = 0.4068	951.37
323.1 K, 15007 kPa, x2 = 0.4502	952.52
323.1 K, 16001 kPa, x2 = 0.4068	952.41
323.1 K, 16010 kPa, x2 = 0.4502	953.67
323.1 K, 16989 kPa, x2 = 0.4068	953.45
323.1 K, 17008 kPa, x2 = 0.4502	954.76
323.1 K, 18013 kPa, x2 = 0.4502	955.9
323.1 K, 18017 kPa, x2 = 0.4068	954.51
323.1 K, 18998 kPa, x2 = 0.4068	955.51
323.1 K, 19001 kPa, x2 = 0.4502	956.99
323.1 K, 19996 kPa, x2 = 0.4502	958.07
323.1 K, 20005 kPa, x2 = 0.4068	956.52
323.1 K, 20986 kPa, x2 = 0.4068	957.5
323.1 K, 21010 kPa, x2 = 0.4502	959.2
323.1 K, 22004 kPa, x2 = 0.4502	960.27
323.1 K, 22021 kPa, x2 = 0.4068	958.56
323.1 K, 22997 kPa, x2 = 0.4502	961.32
323.1 K, 22998 kPa, x2 = 0.4068	959.49
323.1 K, 23987 kPa, x2 = 0.4068	960.47
323.1 K, 23995 kPa, x2 = 0.4502	962.39
323.1 K, 25019 kPa, x2 = 0.4502	963.43
323.1 K, 25057 kPa, x2 = 0.4068	961.5
323.15 K, 5022 kPa, x2 = 0.2876	937.32
323.15 K, 6019 kPa, x2 = 0.2876	938.29
323.15 K, 7007 kPa, x2 = 0.2876	939.23
323.15 K, 8008 kPa, x2 = 0.2876	940.16
323.15 K, 9023 kPa, x2 = 0.2876	941.14
323.15 K, 10001 kPa, x2 = 0.2876	942.04
323.15 K, 11006 kPa, x2 = 0.2876	942.98
323.15 K, 12003 kPa, x2 = 0.2876	943.9
323.15 K, 13004 kPa, x2 = 0.2876	944.81
323.15 K, 14005 kPa, x2 = 0.2876	945.73
323.15 K, 14999 kPa, x2 = 0.2876	946.61
323.15 K, 15994 kPa, x2 = 0.2876	947.48
323.15 K, 17022 kPa, x2 = 0.2876	948.41
323.15 K, 17996 kPa, x2 = 0.2876	949.25
323.15 K, 19004 kPa, x2 = 0.2876	950.13
323.15 K, 20021 kPa, x2 = 0.2876	950.99
323.15 K, 21018 kPa, x2 = 0.2876	951.84
323.15 K, 22030 kPa, x2 = 0.2876	952.68
323.15 K, 23007 kPa, x2 = 0.2876	953.51
323.15 K, 24019 kPa, x2 = 0.2876	954.35
323.15 K, 25012 kPa, x2 = 0.2876	955.16
332.96 K, 10005 kPa, x2 = 0.6235	907.82
332.96 K, 10991 kPa, x2 = 0.6235	910.93
332.96 K, 12056 kPa, x2 = 0.6235	913.98
332.96 K, 13000 kPa, x2 = 0.6235	916.59
332.96 K, 14042 kPa, x2 = 0.6235	919.37
332.96 K, 15010 kPa, x2 = 0.6235	921.91
332.96 K, 15997 kPa, x2 = 0.6235	924.4
332.96 K, 17030 kPa, x2 = 0.6235	926.91
332.96 K, 18038 kPa, x2 = 0.6235	929.31
332.96 K, 19028 kPa, x2 = 0.6235	931.63
332.96 K, 20027 kPa, x2 = 0.6235	933.85
332.96 K, 21009 kPa, x2 = 0.6235	936.05
332.96 K, 22009 kPa, x2 = 0.6235	938.17
332.96 K, 23042 kPa, x2 = 0.6235	940.35
332.96 K, 24041 kPa, x2 = 0.6235	942.44
332.96 K, 25008 kPa, x2 = 0.6235	944.38
332.97 K, 13046 kPa, x2 = 0.8091	858.28
332.97 K, 14016 kPa, x2 = 0.8091	863.75
332.97 K, 15002 kPa, x2 = 0.8091	869.06
332.97 K, 16027 kPa, x2 = 0.8091	874.28
332.97 K, 17017 kPa, x2 = 0.8091	879.06
332.97 K, 18042 kPa, x2 = 0.8091	883.74
332.97 K, 19003 kPa, x2 = 0.8091	887.97
332.97 K, 20021 kPa, x2 = 0.8091	892.23
332.97 K, 21029 kPa, x2 = 0.8091	896.31
332.97 K, 22019 kPa, x2 = 0.8091	900.16
332.97 K, 23004 kPa, x2 = 0.8091	903.83
332.97 K, 24041 kPa, x2 = 0.8091	907.6
332.97 K, 24998 kPa, x2 = 0.8091	910.97
332.98 K, 8015 kPa, x2 = 0.4268	929.54
332.98 K, 9023 kPa, x2 = 0.4268	930.86
332.98 K, 9996 kPa, x2 = 0.4268	932.09
332.98 K, 11004 kPa, x2 = 0.4268	933.37
332.98 K, 12004 kPa, x2 = 0.4268	934.65
332.98 K, 13005 kPa, x2 = 0.4268	935.88
332.98 K, 13019 kPa, x2 = 0.9311	744.38
